{
  "source": "patent US20240279611A1",
  "about": "“EXOSOME PRODUCTION PROMOTING AGENT AND EXOSOME PRODUCTION PROMOTING METHOD” (FULLSTEM CO., LTD., priority 2021, published 2024)",
  "test_system": "adipose-derived mesenchymal stem cells (ADSC)",
  "assay": "Amount of exosomes produced from ADSC, measured with Exo Counter (CD81 sandwich immunoassay) after excluding single factors",
  "format": "cell-based",
  "conditions": "48-hour culture in DMEM F12 on nonwoven fabric; one factor excluded from the eight factors of Table 1, compared with all eight added; CD81 on exosome surface detected in culture supernatant; FIG. 1",
  "procedure": "4×10^4 adipose-derived mesenchymal stem cells (ADSC) were seeded in each well. A nonwoven fabric (3D, BioNOCII, CESCO BIOENGINEERING CO., LTD. in non-adhesive 24 well plate (PrimeSurface (registered trademark) Sumitomo Bakelite Co., Ltd.) was used for cell culture. A basal medium was 1.5 ml of 10% FBS/DMEM F12 (Sigma-Aldrich). The number of days of culture was 6. Starting from Day 2, 1.5 ml of medium was exchanged daily, and the amount of sugar consumed in the used culture medium was measured.\nNext, in the cell culture for 48 hours on Day 7 and Day 8, DMEM F12 was used as a medium so as to collect exosomes. In this 48-hour culture, 10% ExoFBS (Funakoshi Co., Ltd.) was added in Test #1. ExoFBS is a product from which bovine-derived exosomes are removed; therefore, influence on an exosome research is reduced.\nIn Test #3 of the 48-hour culture, only factor A was excluded from the eight factors shown in Table 1, and the other factors were added. In Test #4 of the 48-hour culture, only factor B was excluded from the eight factors shown in Table 1, and the other factors were added. In Test #5 of the 48-hour culture, only factor C was excluded from the eight factors shown in Table 1, and the other factors were added. In Test #6 of the 48-hour culture, only factor D was excluded from the eight factors shown in Table 1, and the other factors were added. In Test #7 of the 48-hour culture, only factor E was excluded from the eight factors shown in Table 1, and the other factors were added. In Test #8 of the 48-hour culture, only factor F was excluded from the eight factors shown in Table 1, and the other factors were added. In Test #9 of the 48-hour culture, only factor G was excluded from the eight factors shown in Table 1, and the other factors were added. In Test #10 of the 48-hour culture, only factor H was excluded from the eight factors shown in Table 1, and the other factors were added.\nThe amount of exosomes produced from ADSC was measured with Exo Counter (Kenwood), using 50 μl each from 1.5 ml of the collected culture supernatant. Exo Counter detects exosomes by sandwich immunoassay using disc and nanobeads antibodies in a surface antigen-specific manner. CD81 on the exosome surface was detected to quantify the exosome amount.",
  "data": [
    {"compound": "OC[C@H]1O[C@H](O[C@H]2O[C@H](CO)[C@@H](O)[C@H](O)[C@H]2O)[C@H](O)[C@@H](O)[C@@H]1O", "note": "[trehalose, Trehalose]", "values": [
      {"measurement": "effect of the factor on the amount of exosomes produced", "result": "promoted the production of exosomes"}
    ]},
    {"compound": "EGF [6045 Da protein consisting of 53 amino acid residues and three intramolecular disulfide bonds; ligand of epidermal growth factor receptor]", "values": [
      {"measurement": "effect of the factor on the amount of exosomes produced", "result": "promotes the production of exosomes"}
    ]},
    {"compound": "IL-1β", "values": [
      {"measurement": "effect of the factor on the amount of exosomes produced", "result": "promoted the production of exosomes"}
    ]},
    {"compound": "TNFα", "values": [
      {"measurement": "effect of the factor on the amount of exosomes produced", "result": "inhibited the production of exosomes"}
    ]}
  ]
}
